Test results published in ChEMBL document CHEMBL1157695, “Identification of a novel ligand binding motif in the transthyretin channel” (Bioorg Med Chem, 2010).
The source made the active and inactive calls. The rule behind the calls is not given here.

Key:
[1] = test system: Transthyretin (Homo sapiens), P02766 [V50M]; experiment: Binding affinity to human recombinant TTR V30M mutant denominated hormone binding site expressed in Escherichia coli at 10 uM by fluorescence anisotropy
[2] = target: Transthyretin (Homo sapiens) (UniProt P02766); experiment: Binding affinity to wild type human TTR denominated hormone binding site expressed in Escherichia coli at 10 uM by fluorescence anisotropy
[3] = Binding affinity to human recombinant TTR T119M mutant denominated hormone binding site expressed in Escherichia coli assessed as dissociation constant for second ligand binding event by isothermal direct titrimetric assay
Homo sapiens [4] = species on record: Homo sapiens; experiment: Binding affinity to human recombinant TTR T119M mutant denominated hormone binding site expressed in Escherichia coli at 10 uM by fluorescence anisotropy
[5] = target: Transthyretin (Homo sapiens) (UniProt P02766); experiment: Inhibition of wild type human TTR aggregation expressed in Escherichia coli assessed as fibril formation at 20 uM after 72 hrs relative by spectrofluorimetry; design: scale not given: the % may be the effect or the level left
[6] = Binding affinity to human recombinant TTR T119M mutant denominated hormone binding site expressed in Escherichia coli by isothermal direct titrimetric assay
[7] = Binding affinity to human recombinant TTR T119M mutant denominated hormone binding site expressed in Escherichia coli assessed as dissociation constant for first ligand binding event by isothermal direct titrimetric assay
Transthyretin = Transthyretin (Homo sapiens, UniProt P02766, V50M); experiment: Binding affinity to human recombinant TTR V30M mutant denominated hormone binding site expressed in Escherichia coli by FRET analysis
[8] = target: Transthyretin (Homo sapiens) (UniProt P02766); experiment: Binding affinity to wild type human TTR denominated hormone binding site expressed in Escherichia coli at 100 nM by fluorescence anisotropy
[9] = test system: Transthyretin (Homo sapiens), P02766 [V50M]; experiment: Binding affinity to human recombinant TTR V30M mutant denominated hormone binding site expressed in Escherichia coli at 100 nM by fluorescence anisotropy
Homo sapiens [10] = species on record: Homo sapiens; experiment: Binding affinity to human recombinant TTR T119M mutant denominated hormone binding site expressed in Escherichia coli at 100 nM by fluorescence anisotropy
[11] = Binding affinity to human recombinant TTR T119M mutant denominated hormone binding site expressed in Escherichia coli by FRET analysis

SMILES | Activity [1] | Activity [2] | Kd [3] | Activity (Homo sapiens [4]) | Activity [5] | Kd [6] | Kd [7] | Kd (Transthyretin) | Activity [8] | Activity [9] | Activity (Homo sapiens [10]) | Kd [11]
O=S(=O)(O)c1cccc2cccc(Nc3ccccc3)c12 | Active | Active | 6.7 µM | Active | 44% | 4.5 µM | 3.2 µM | – | – | – | – | –
Nc1cccc2c(S(=O)(=O)O)cccc12 | – | – | – | – | 100% | – | – | 86 µM | Active | Active | Active | 93 µM
O=C(O)Cc1ccccc1Nc1c(Cl)cccc1Cl | – | – | – | – | 33% | – | – | – | – | – | – | –
